Measurements taken from US9504676B2, “Molecules inhibiting a metabolic pathway involving the Syk protein tyrosine kinase and method for identifying said molecules” (CENTRE NATIONAL DE LA RECHERCHE SCIENTIFIQUE, priority 2008, dated 2016).
≈ marks a conversion by molar mass, not a printed value.

Experiments:
[1] = molecular target: T1, murine Syk tyrosine kinase protein (GST:Syk 6-242) (Mus musculus, UniProt P48025); experiment: ADA method: displacement of the binding of scFv G4G11 with Syk (ELISA); settings: small molecules at 10 μM, scFv G4G11 100 nM; read-out: In vit. inhib.: mean inhibition % of the binding of scFv G4G11 with Syk in the ADA method
T1 construct: made in house
Summary of the method: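 GST:Syk 6-242 (murine) was immobilised at 10 μg ml^−1 and pre-incubated 1 h at ambient temperature with compounds at 10 μM final in PBS. scFv G4G11 was then added at 100 nM for 1 h. Bound scFv was detected via its C-terminal c-myc tag with HRP-9E10, and % inhibition was taken from signals with versus without compound.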

[2] = test system: RBL-2H3 cells; experiment: cells; format: cell-based, rat; settings: Rattus norvegicus; RBL-2H3 cells; read-out: Degran. IC50: concentration inhibiting mast cell degranulation by 50%
Summary of the method: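 RBL-2H3 rat basophils sensitized 12-16 h with anti-DNP IgE (0.5 μg/ml), pretreated 90 min at 37° C with compound (DMF 0.25% vehicle), then stimulated 45 min with DNP-BSA (50 ng ml^−1) or ionomycin (1.5 μM). Degranulation read as β-hexosaminidase release.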

[3] = test system: BMMC cells; experiment: C-13 toxicity test on BMMC cells (Annexin-V and Propidium Iodide); format: cell-based; settings: Staurosporine, 3 hours
Description: FIG. 10. Toxicity test of C-13 on BMMC cells. The BMMC cells were incubated at 37° C. in the presence of 2.5 μM or 5 μM of C-13, 0.25% DMF or Staurosporine. The percentages of live BMMC cells after 3 hours and after 5 days were detected by means of double Annexin-V and Propidium Iodide labelling. The viability of BMMC cells incubated in the presence of 2.5 μM or 5 μM of C-13 or 0.25% DMF was not affected to noteworthy degree after 3 hours (78%, 74% and 79% respectively) or five days (62, 56 and 57%, respectively). On the other hand, the viability of BMMC cells treated under the same conditions with Staurosporine was reduced to a level of 16% after only 3 hours.
• 1) Chemical products and antibodies. A chemical bank of 3000 molecules (a varied subset) was acquired from ChemBridge, Inc. (San Diego, Calif.). Stocks of solutions of small molecules were prepared at a rate of 10 mM in DMSO (dimethylsulphoxide), except for C-13 (methyl 2-{5-[(3-benzyl-4-oxo-2-thioxo-1,3-thiazolidin-5-ylidene)methyl]-2-furyl}benzoate, ChemBridge ID No. 6197026) prepared in DMF (dimethylformamide). Unless specified otherwise, all the reagents were supplied by Sigma. Dinitrophenyl (DNP) hapten was acquired from Calbiochem. Sepharose GammaBind G and all the secondary antibodies were supplied by GE Health Amersham Biosciences. The anti-Syk, anti-Lyn, anti-Btk, anti-PLC-γ1, anti-PLC-γ2, anti-LAT, anti-SLP-76, anti-p38, anti-JNK, anti-Vav, anti-Akt1 and 9E10 antibodies conjugated with HRP were acquired from Santa Cruz Biotechnology. The anti-phospho-p44/42 MAP Kinase, anti-p44/42 MAP Kinase, anti-phospho-p38, anti-phospho-JNK, anti-phospho-Akt1 antibodies were acquired from Cell Signaling. The anti-phospho-LAT and anti-phospho-PLC-γ1 antibodies were supplied by Biosource and the anti-phospho-SLP-76 antibodies by BD Pharmingen. The 4G10 anti-phosphotyrosine monoclonal antibody was acquired from Upstate Biotechnology. • 2) ADA method: ELISA type high-speed molecule screening test, based on antibody displacement (WO 2005106481). The recombinant fusion protein GST:Syk 6-242^8 comprising the residues 6 to 242 of murine Syk tyrosine kinase protein illustrated in FIG. 8B (SEQ ID No. 4) was immobilised on an ELISA plate at a final concentration of 10 μg ml^−1. For the screening of the chemical molecule bank, the small molecules, diluted in PBS at a final concentration of 10 μM were added to the wells for one hour at ambient temperature, before adding the fragment scFv G4G11 at a final concentration of 100 nM for an additional hour. The binding of G4G11 with Syk was assessed by adding the 9E10 monoclonal antibody conjugated with HRP detecting the amino acid sequence EQKLISEEDLN of human c-myc protein located at the C-terminal end of the scFv fragment. To generate Syk mutants, targeted mutagenesis was used on GST:Syk 6-242 protein and the binding of G4G11 with the mutants was assessed in the presence of 5 μM of C-13. • 3) Cells, culture conditions and functional tests. Anti-DNP 2682-I mouse monoclonal antibody was used as the culture supernatant of hybridomas containing 1 μg/ml of IgE. Femoral bone marrow cells were sampled and cultured in Opti-MEM medium (Gibco) supplemented with 10% foetal calf serum and 4% X63 transfectant supernatant secreting murine IL-3. RBL-2H3 (ATCC) leukaemic rat basophil cells were maintained in a single-layer culture in RPMI 1640 medium supplemented with 10% foetal calf serum (Gibco). […]

Compound | inhibition at 10 µM [1] [%] | IC50 [2] [µg/mL] | percentage of live BMMC cells [3] [%]
CCOC(=O)C1CCN(C(=O)c2ccc(CN(c3ccc(C)c(C)c3)S(C)(=O)=O)cc2)CC1 [Molecule 80, ethyl 1-(4-{[(3,4-dimethylphenyl) (methyl sulphonyl)amino]methyl}benzoyl)-4-piperidine carboxylate] | 24.5 | > 10 | –
COC(=O)c1ccc(NC(=O)CN(c2cccc(OC)c2)S(=O)(=O)c2ccccc2)cc1 [Molecule 81] | 20 | > 10 | –
O=C(C1=C(O)C(=O)N(CCCN2CCOCC2)C1c1ccncc1)c1ccc2c(c1)OCCO2 (stereo not shown) [Molecule 83, 4-(2,3-dihydro-1,4-benzodioxin-6-ylcarbonyl)-3-hydroxy-1-[3-(4-morpholinyl)propyl]-5-(4-pyridinyl)-1,5-dihydro-2H-pyrrol-2-one] | 19 | ~10 (≈ 21.5 µM) | –
CN[C@@H]1C[C@H]2O[C@@](C)([C@@H]1OC)n1c3ccccc3c3c4c(c5c6ccccc6n2c5c31)C(=O)NC4 [Staurosporine, reference compound] | – | – | 16

More lines, main results first:

inhibition at 10 µM [1] [%] | IC50 [2] [µg/mL] | Compound | percentage of live BMMC cells [3] [%]
18 | ~10 (≈ 18.5 µM) | COc1cccc2cc(C(=O)C3=C(O)C(=O)N(CCN4CCOCC4)C3c3cccc(Br)c3)oc12 (stereo not shown) [Molecule 85, 5-(3-bromophenyl)-3-hydroxy-4-[(7-methoxy-1-benzofuran-2-yl)carbonyl]-1-[2-(4-morpholinyl)ethyl]-1,5-dihydro-2H-pyrrol-2-one] | –
17 | ~10 (≈ 21.6 µM) | CCN(CC)CCCN1C(=O)C(O)=C(C(=O)c2cc3cccc(OC)c3o2)C1c1ccccn1 (stereo not shown) [Molecule 86, 1-[3-(diethylamino)propyl]-3-hydroxy-4-[(7-methoxy-1-benzofuran-2-yl)carbonyl]-5-(2-pyridinyl)-1,5-dihydro-2H-pyrrol-2-one] | –
11 | ~5 (≈ 10.3 µM) | Cc1ccc(-c2nnc(N3CCN(C(=O)CSc4nc(C)cc(C)n4)CC3)c3ccccc23)cc1 [Molecule 87, 1-(4-{[(4,6-dimethyl-2-pyrimidinyl)thio]acetyl}-1-piperazinyl)-4-(4-methylphenyl) phthalazine] | –
